Each structure is given as a SMILES string. “And” between values parts separate entries of the source, which are not always exact repeats. Identical values can stand only once.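 48-hour exposure; five concentrations; linearly interpolated endpoints. GI50 marks 50% less growth. At the TGI there is no net growth.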

Among the test systems are IGROV1 ovarian; M14 melanoma; NCI-H226 lung; OVCAR-3 ovarian; SF-268 CNS; SK-MEL-2 melanoma; SK-MEL-28 melanoma; SNB-19 CNS; TK-10 renal; UO-31 renal.
Common to all, as to assay: NCI tumour cell line growth inhibition, 48 h

`CCN(CC)C(=S)SCN1C(=O)c2ccccc2S1(=O)=O`: the GI50 is 55.2 µM in the assay with IGROV1 ovarian; 20.9 µM with M14 melanoma; 65.5 µM in the assay with NCI-H226 lung; 34.3 µM in the assay on OVCAR-3 ovarian; 34.2 µM with SF-268 CNS; > 94.4 µM in the assay on SK-MEL-2 melanoma. Further, the GI50 in the assay with SK-MEL-28 melanoma was 31 µM; in the assay on SNB-19 CNS it was 78 µM; in the assay on TK-10 renal it was > 52.4 µM; in the assay with UO-31 renal it was 53.9 µM. Besides, the TGI in the assay on IGROV1 ovarian was > 100 µM; in the assay with M14 melanoma it was > 82.5 µM; in the assay on NCI-H226 lung, > 100 µM; with OVCAR-3 ovarian, > 100 µM; in the assay with SF-268 CNS, > 100 µM; with SK-MEL-2 melanoma it was > 100 µM. The TGI is > 85.1 µM in the assay with SK-MEL-28 melanoma, > 100 µM in the assay with SNB-19 CNS, > 100 µM with TK-10 renal and > 100 µM with UO-31 renal.
As to `CN(Cc1cc(Br)cc(Br)c1O)Cc1c(O)ccc2ccccc12`, the TGI with IGROV1 ovarian came out at 44.6 µM; in the assay on M14 melanoma, 41.5 µM; with NCI-H226 lung, 40.5 µM; with OVCAR-3 ovarian it was 31.8 µM; in the assay on SF-268 CNS, 74.5 µM; in the assay with SK-MEL-2 melanoma it was 35.6 µM. For the same compound, the TGI in the assay with SK-MEL-28 melanoma worked out at 44.2 µM; in the assay on SNB-19 CNS, 38.9 µM; with TK-10 renal it was 36.4 µM; with UO-31 renal, 30.9 µM.
Turning to `CSC(=S)OC1CC(n2cnc3c(NC(=O)c4ccccc4)ncnc32)OC1CO[Si](C)(C)C(C)(C)C` (stereo unspecified), the TGI with IGROV1 ovarian is 44.2 µM; in the assay on M14 melanoma it was > 56.2 µM; in the assay on NCI-H226 lung it was > 56.2 µM; in the assay on OVCAR-3 ovarian, 34.4 µM; in the assay on SF-268 CNS it was > 56.2 µM; with SK-MEL-2 melanoma, 53.4 µM. Moreover, the TGI in the assay with SK-MEL-28 melanoma was > 46.4 µM; in the assay on SNB-19 CNS it was > 56.2 µM; in the assay with TK-10 renal, > 56.2 µM; in the assay with UO-31 renal it was 28 µM.
As to `CCC(=O)Nc1ccc(C)c(-c2ccc(C(=O)NCC3CC3)cc2)c1`, the GI50 in the assay on IGROV1 ovarian, in the assay on M14 melanoma, in the assay on NCI-H226 lung, with OVCAR-3 ovarian, in the assay with SF-268 CNS and in the assay with SK-MEL-2 melanoma was > 25 µM each time. Besides, the GI50 in the assay on SK-MEL-28 melanoma, in the assay with SNB-19 CNS, in the assay on TK-10 renal and in the assay with UO-31 renal was > 25 µM in each case. Moreover, the TGI in the assay with IGROV1 ovarian, in the assay on M14 melanoma, in the assay with NCI-H226 lung, with OVCAR-3 ovarian, in the assay with SF-268 CNS and in the assay with SK-MEL-2 melanoma was > 25 µM in each case. Moreover, the TGI with SK-MEL-28 melanoma, with SNB-19 CNS, in the assay with TK-10 renal and with UO-31 renal was > 25 µM each time.
Turning to `CC(C)(C)c1ccc(OCCOCCOc2ccc(C(C)(C)C)cc2S(=O)(=O)Nc2ccc([N+](=O)[O-])cc2)c(S(=O)(=O)Nc2ccc([N+](=O)[O-])cc2)c1`, the TGI with IGROV1 ovarian, in the assay with M14 melanoma, in the assay with NCI-H226 lung, in the assay with OVCAR-3 ovarian, in the assay on SF-268 CNS and with SK-MEL-2 melanoma was > 100 µM throughout. Further, the TGI in the assay on SK-MEL-28 melanoma, in the assay with SNB-19 CNS, in the assay with TK-10 renal and in the assay with UO-31 renal was > 100 µM throughout.
For the compound `C/C(O)=C(\C#N)C(=O)Nc1ccc(C(F)(F)F)cc1`, the GI50 was 28.4 µM in the assay on IGROV1 ovarian; 52.5 µM in the assay with M14 melanoma; 98 µM in the assay with NCI-H226 lung; 37 µM in the assay on OVCAR-3 ovarian; 15 µM in the assay with SF-268 CNS; 73.2 µM with SK-MEL-2 melanoma. In addition, the GI50 in the assay with SK-MEL-28 melanoma is 69.5 µM; with SNB-19 CNS, 24.5 µM; in the assay with TK-10 renal, > 100 µM; in the assay with UO-31 renal, 18.1 µM. Also, the TGI with IGROV1 ovarian, in the assay on M14 melanoma, with NCI-H226 lung, in the assay on OVCAR-3 ovarian, in the assay on SF-268 CNS and in the assay on SK-MEL-2 melanoma was > 100 µM in each case. Moreover, the TGI in the assay on SK-MEL-28 melanoma, in the assay on SNB-19 CNS, in the assay on TK-10 renal and with UO-31 renal was > 100 µM throughout.
As to `Cc1cccc2c1CCC21OC(=O)c2c1ccc1ccccc21` (stereo unspecified), the TGI with IGROV1 ovarian is > 100 µM; in the assay on M14 melanoma, 64.8 µM; with NCI-H226 lung, > 100 µM; in the assay on OVCAR-3 ovarian, > 100 µM; with SF-268 CNS it was > 100 µM; in the assay on SK-MEL-2 melanoma, 62.3 µM. Also, the TGI in the assay on SK-MEL-28 melanoma, in the assay on SNB-19 CNS, in the assay with TK-10 renal and with UO-31 renal was > 100 µM throughout.
With `COC(=O)C12OCC34C(CC5C(C)C6=CC(=O)OC6=CC5(C)C3C(O)C1O)OC(=O)C(O)C24` (stereo unspecified), the GI50 with IGROV1 ovarian was 0.17 µM; in the assay with M14 melanoma it was 0.177 µM and 0.767 µM; with NCI-H226 lung, 0.0875 µM; in the assay with OVCAR-3 ovarian, 0.282 µM; in the assay on SF-268 CNS it was 0.287 µM; in the assay on SK-MEL-2 melanoma, 0.313 µM. Also, the GI50 is 0.0899 µM in the assay with SK-MEL-28 melanoma, 0.0525 µM with SNB-19 CNS and 0.534 µM in the assay on TK-10 renal. Besides, the TGI with IGROV1 ovarian was 0.436 µM and 1.41 µM; in the assay with M14 melanoma it was 0.504 µM and 2.22 µM; in the assay on OVCAR-3 ovarian, 3.61 µM; in the assay on SF-268 CNS, 3.34 µM; in the assay with SK-MEL-2 melanoma, 0.944 µM and 2.43 µM; in the assay with SK-MEL-28 melanoma it was 0.933 µM and 2.29 µM. Further, the TGI in the assay on TK-10 renal was found to be 58.2 µM; with UO-31 renal, 61.8 µM.
For the compound `COc1ccc2c(c1)C(=O)/C(=C/c1ccc([N+](=O)[O-])o1)O2`, the GI50 in the assay with IGROV1 ovarian is 1.02 µM; in the assay with M14 melanoma, 1.64 µM; in the assay with NCI-H226 lung, 1.78 µM; in the assay with OVCAR-3 ovarian, 0.878 µM; with SF-268 CNS, 1.85 µM; in the assay with SK-MEL-2 melanoma, 1.83 µM. Further, the GI50 was 1.69 µM with SK-MEL-28 melanoma, 3.09 µM in the assay on SNB-19 CNS, 1.05 µM with TK-10 renal and 0.796 µM in the assay on UO-31 renal. For the same compound, the TGI with IGROV1 ovarian stood at 3.58 µM; in the assay with M14 melanoma it was 3.32 µM; with NCI-H226 lung it was 5.83 µM; in the assay with OVCAR-3 ovarian it was 2.22 µM; with SF-268 CNS it was 4.02 µM; in the assay on SK-MEL-2 melanoma it was 3.83 µM. Further, the TGI with SK-MEL-28 melanoma turned out to be 3.22 µM; with TK-10 renal, 2.59 µM; in the assay with UO-31 renal, 2.46 µM.

The values are drawn from PubChem BioAssay (NCI).
